Laboratory results as given in US10597388B2, “Pyridazinone herbicides” (FMC CORPORATION, priority 2014, dated 2020).

Assays:
Type in all cases: in vivo
[1] = test system: barnyardgrass (Echinochloa crus-galli); assay: Test A greenhouse herbicide test, pre- and postemergence
Method in brief: (§1)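 Seeds in loam–sand blend received a preemergence directed soil spray; plants at 2–10 cm, one- to two-leaf stage, received postemergence sprays. Compounds in a non-phytotoxic solvent with surfactant. After about 10 d in a greenhouse, injury rated visually versus untreated controls on a 0–100 scale (100 = complete control).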

corn (Zea mays) = assay: as above; settings: Postemergence
Method in brief: as §1

[2] = test system: foxtail, giant (giant foxtail, Setaria faberii); assay: as above
Method in brief: as §1

[3] = test system: pigweed (Amaranthus retroflexus); assay: as above
Method in brief: as §1

[4] = test system: ragweed (common ragweed, Ambrosia elatior); assay: as above
Method in brief: as §1

[5] = test system: blackgrass (Alopecurus myosuroides); assay: Test A greenhouse herbicide test, postemergence
Method in brief: (§2)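 Visual injury score, 0 (no effect) to 100 (complete control), versus untreated controls roughly 10 d after postemergence spray; plants at one- to two-leaf stage, 2 to 10 cm tall, in loam soil and sand, kept in greenhouse.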

[6] = test system: galium (catchweed bedstraw, Galium aparine); assay: Test A greenhouse herbicide test, postemergence
Method in brief: as §2

[7] = test system: barnyardgrass (Echinochloa crus-galli); assay: Test C greenhouse herbicide test, pre- and postemergence
Method in brief: (§3)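 Pre- and postemergence greenhouse screen; values are visual control ratings, 0 meaning no effect and 100 complete kill, assigned relative to untreated plants after 13 to 15 d.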

[8] = test system: galium (catchweed bedstraw, Galium aparine); assay: as above
Method in brief: as §3

[9] = test system: nutsedge, yellow (yellow nutsedge, Cyperus esculentus); assay: as above
Method in brief: as §3

[10] = test system: wheat (winter wheat, Triticum aestivum); assay: as above
Method in brief: as §3

[11] = Postemergence, 125 g ai/ha, 0 to 100 scale where 0 is no effect and 100 is complete control
[12] = Postemergence, 500 g ai/ha, visual rating after approx. 10 d, 0 to 100 scale (0 no effect, 100 complete control)
[13] = Preemergence, 125 g ai/ha, 0 to 100 scale where 0 is no effect and 100 is complete control
[14] = Preemergence, 500 g ai/ha, 0 to 100 scale where 0 is no effect and 100 is complete control
[15] = 125 g ai/ha, 0 to 100 scale where 0 is no effect and 100 is complete control
[16] = 500 g ai/ha, visual rating after approx. 10 d, 0 to 100 scale (0 no effect, 100 complete control)
[17] = Postemergence, 31 g ai/ha, scale 0 to 100 (0 no effect, 100 complete control)
[18] = Postemergence, 125 g ai/ha, scale 0 to 100, 0 is no effect, 100 is complete control
[19] = Postemergence, 250 g ai/ha, scale 0 to 100, 0 no effect, 100 complete control, 13 to 15 d
[20] = Preemergence, 31 g ai/ha, scale 0 to 100, 0 is no effect, 100 is complete control
[21] = Preemergence, 62 g ai/ha, scale 0 to 100, 0 is no effect, 100 is complete control
[22] = Preemergence, 125 g ai/ha, scale 0 to 100, 0 is no effect, 100 is complete control
[23] = Preemergence, 250 g ai/ha, scale 0 to 100 (0 no effect, 100 complete control)
[24] = postemergence, 62 g ai/ha, scale 0 to 100, 0 no effect, 100 complete control

Structure (SMILES): Cc1sc2ccc(Cl)cc2c1-c1c(OS(C)(=O)=O)c(Cl)nn(C)c1=O [Compound 114]
- Plant response rating, Barnyardgrass [1, 11]: 20
- Plant response rating, Barnyardgrass [1, 12]: 90
- Barnyardgrass plant response rating [1, 13]: 30
- Plant response rating, Barnyardgrass [1, 14]: 80
- Plant response rating, Corn (corn (Zea mays); [15]): 0
- Plant response rating, Corn (corn (Zea mays); [16]): 30
- Plant response rating, Foxtail, Giant [2, 11]: 70
- Plant response rating, Foxtail, Giant [2, 12]: 90
- Foxtail, Giant plant response rating [2, 13]: 40
- Plant response rating, Foxtail, Giant [2, 14]: 90
- Plant response rating, Pigweed [3, 11]: 90
- Plant response rating, Pigweed [3, 12]: 90
- Pigweed plant response rating [3, 13]: 100
- Plant response rating, Pigweed [3, 14]: 100
- Plant response rating, Ragweed [4, 11]: 70
- Plant response rating, Ragweed [4, 12]: 80
- Ragweed plant response rating [4, 13]: 80
- Plant response rating, Ragweed [4, 14]: 90
- Plant response rating, Blackgrass [5, 15]: 20
- Plant response rating, Blackgrass [5, 16]: 60
- Plant response rating, Galium [6, 15]: 90
- Plant response rating, Galium [6, 16]: 100
- Plant response rating, Barnyardgrass [7, 17]: 30
- Plant response rating, Barnyardgrass [7, 18]: 40
- Plant response rating, Barnyardgrass [7, 19]: 40
- Plant response rating, Barnyardgrass [7, 20]: 5
- Plant response rating, Barnyardgrass [7, 21]: 10
- Plant response rating, Barnyardgrass [7, 22]: 60
- Barnyardgrass plant response rating [7, 23]: 95
- Barnyardgrass plant response rating [7, 24]: 35
- Plant response rating, Galium [8, 17]: 95
- Plant response rating, Galium [8, 18]: 95
- Plant response rating, Galium [8, 19]: 95
- Plant response rating, Galium [8, 20]: 98
- Plant response rating, Galium [8, 21]: 98
- Plant response rating, Galium [8, 22]: 100
- Galium plant response rating [8, 23]: 100
- Plant response rating, Nutsedge, Yellow [9, 17]: 10
- Plant response rating, Nutsedge, Yellow [9, 18]: 25
- Plant response rating, Nutsedge, Yellow [9, 19]: 35
- Plant response rating, Nutsedge, Yellow [9, 20]: 10
- Plant response rating, Nutsedge, Yellow [9, 21]: 40
- Plant response rating, Nutsedge, Yellow [9, 22]: 65
- Nutsedge, Yellow plant response rating [9, 23]: 95
- Plant response rating, Wheat [10, 17]: 0
- Plant response rating, Wheat [10, 18]: 5
- Plant response rating, Wheat [10, 19]: 15
- Plant response rating, Wheat [10, 20]: 0
- Plant response rating, Wheat [10, 21]: 0
- Plant response rating, Wheat [10, 22]: 5
- Wheat plant response rating [10, 23]: 35

Structure (SMILES): Cc1nn(C)c(=O)c(-c2cc(F)cc3ccccc23)c1OS(C)(=O)=O [Compound 115]
- Plant response rating, Barnyardgrass [1, 11]: 20
- Plant response rating, Barnyardgrass [1, 12]: 90
- Barnyardgrass plant response rating [1, 13]: 10
- Plant response rating, Barnyardgrass [1, 14]: 50
- Plant response rating, Corn (corn (Zea mays); [15]): 0
- Plant response rating, Corn (corn (Zea mays); [16]): 20
- Plant response rating, Foxtail, Giant [2, 11]: 20
- Plant response rating, Foxtail, Giant [2, 12]: 90
- Foxtail, Giant plant response rating [2, 13]: 30
- Plant response rating, Foxtail, Giant [2, 14]: 50
- Plant response rating, Pigweed [3, 11]: 70
- Plant response rating, Pigweed [3, 12]: 90
- Pigweed plant response rating [3, 13]: 70
- Plant response rating, Pigweed [3, 14]: 100
- Plant response rating, Ragweed [4, 11]: 80
- Plant response rating, Ragweed [4, 12]: 100
- Ragweed plant response rating [4, 13]: 40
- Plant response rating, Ragweed [4, 14]: 90
- Plant response rating, Blackgrass [5, 15]: 20
- Plant response rating, Blackgrass [5, 16]: 70
- Plant response rating, Galium [6, 15]: 80
- Plant response rating, Galium [6, 16]: 100
- Plant response rating, Barnyardgrass [7, 17]: 10
- Plant response rating, Barnyardgrass [7, 18]: 35
- Plant response rating, Barnyardgrass [7, 19]: 45
- Barnyardgrass plant response rating [7, 24]: 20
- Plant response rating, Galium [8, 17]: 85
- Plant response rating, Galium [8, 18]: 95
- Plant response rating, Galium [8, 19]: 95
- Plant response rating, Nutsedge, Yellow [9, 17]: 40
- Plant response rating, Nutsedge, Yellow [9, 18]: 65
- Plant response rating, Nutsedge, Yellow [9, 19]: 80
- Plant response rating, Wheat [10, 17]: 0
- Plant response rating, Wheat [10, 18]: 0
- Plant response rating, Wheat [10, 19]: 5
